{
  "source": "patent US6365746B1",
  "about": "“Stable and water soluble bis Au(I) complexes and their synthesis” (Eastman Kodak Company, priority 1997, dated 2002)",
  "assay_type_in_all_cases": "physicochemical",
  "key": {"[1]": {"test": "Stability in 0.025 N H2SO4 at room temperature (gold precipitation)", "conditions": "200 mg in 600 mL 0.025 N H2SO4, room temperature, after two weeks (duration of the study)", "protocol": "Stability of Compound S versus Compound TTT. Two different batches of Compound TTT and Compound S, each weighing 200 mg, were dissolved in 600 mL of a 0.025 N H2SO4. The solutions were allowed to stand at room temperature. One of the solutions containing Compound TTT had brownish colloidal gold precipitated within 5 days and the other batch had purplish gold specks after 7 days."}, "[2]": {"test": "Stability study of aqueous solution monitored by UV-visible spectroscopy", "protocol": "Stability Study of Compound S. To a 1000 mL borosilicate volumetric flask was added 14.7 g of Compound S and water. An aliquot of the gold solution was placed into a quartz cuvette and the keeping characteristics of the solution were monitored using UV-visible spectroscopy over the course of 25 days. A compound, TTT, a known sensitizer having a mesoionic heterocycle was similarly monitored."}, "[3]": {"test": "Solubility study in water (gravimetric, filtrate residue)", "conditions": "stirred in the dark 1 hr, filtered, duplicate", "protocol": "Solubility Study of compound S.5 H2O. To a 10 mL borosilicate volumetric flask was added 0.25 g of Compound S and a stir bar. Water was added to the 10 mL mark and the suspension was stirred in the dark for 1 hr. The suspension was filtered through a 0.25 μm syringe filter and 3.00 mL of the filtrate was placed into a tared porcelain dish (dried by heating at 125° C. for 12 hours followed by cooling to ambient temperature in a CaCl2 desiccator). The sample was placed into a vacuum desiccator and subjected to vacuum for ca. 60 hours. Finally, the dish and residue were weighed and the mass of the residue was determined by difference."}},
  "data": [
    {"substance": "potassium bis(1-[3-(2-sulfonatobenzamido)phenyl]-5-mercaptotetrazole potassium salt) aurate(I) pentahydrate [Compound S]", "values": [
      {"measurement": "gold precipitate from the solution", "setting": "[1]", "result": "no gold precipitate"},
      {"measurement": "Change in Absorbance @ 235 nm", "setting": "[2]; day 1", "result": 0},
      {"measurement": "Change in Absorbance @ 235 nm", "setting": "[2]; day 4", "result": 0.0013},
      {"measurement": "Change in Absorbance @ 235 nm", "setting": "[2]; day 8", "result": 0.0015},
      {"measurement": "Change in Absorbance @ 235 nm", "setting": "[2]; day 13", "result": 0.0058},
      {"measurement": "Change in Absorbance @ 235 nm", "setting": "[2]; day 20", "result": 0.0070},
      {"measurement": "Change in Absorbance @ 235 nm", "setting": "[2]; day 25", "result": 0.0064},
      {"measurement": "average solubility", "setting": "[3]", "result": 33.6, "unit": "mg/mL"}
    ]},
    {"substance": "bis(1,4,5-trimethyl-1,2,4-triazolium-3-thiolate) gold (I) tetrafluoroborate [TTT, reference compound]", "values": [
      {"measurement": "Change in Absorbance @ 235 nm", "setting": "[2]; day 1", "result": 0},
      {"measurement": "Change in Absorbance @ 235 nm", "setting": "[2]; day 4", "result": 0.0222},
      {"measurement": "Change in Absorbance @ 235 nm", "setting": "[2]; day 8", "result": 0.0653},
      {"measurement": "Change in Absorbance @ 235 nm", "setting": "[2]; day 13", "result": 0.0868},
      {"measurement": "Change in Absorbance @ 235 nm", "setting": "[2]; day 20", "result": 0.1108},
      {"measurement": "Change in Absorbance @ 235 nm", "setting": "[2]; day 25", "result": 0.1340}
    ]}
  ]
}
